Reference: patent US5843889A, “Glycopeptide antibiotic derivatives” (Eli Lilly and Company, priority 1997, dated 1998)
In brackets after ≈: the same amount, converted by molar mass.

How the values were obtained:
Assay in all cases: MIC, standard broth micro-dilution assay
Format in all cases: cell-based
[1] = test system: Entercoccus gallinarum 245
Protocol: (§1) The formula I compounds have in vitro and in vivo activity against Gram-positive pathogenic bacteria. The MIC's were determined using a standard broth micro-dilution assay.

Entercoccus faecalis 276 = test system: Entercoccus faecalis 276
Protocol: as §1

[2] = test system: Entercoccus faecalis 2041
Protocol: as §1

SMILES: CNC(CC(C)C)C(=O)NC1C(=O)NC(CC(N)=O)C(=O)NC2C(=O)NC3C(=O)NC(C(=O)NC(C(=O)O)c4cc(O)cc(O)c4-c4cc3ccc4O)C(OC3CC(C)(N)C(O)C(C)O3)c3ccc(c(Cl)c3)Oc3cc2cc(c3OC2OC(CO)C(O)C(O)C2OC2CC(C)(NCc3ccc(N(C)c4ccccc4)cc3)C(O)C(C)O2)Oc2ccc(cc2Cl)C1O (stereo not drawn) [Compound 178, 4-[N-methylanilino]benzyl]
- MIC [1]: 2 µg/mL (≈ 1.12 µM)
- MIC (Entercoccus faecalis 276): 0.5 µg/mL (≈ 0.28 µM)
- MIC [2]: ≤ 0.06 µg/mL

SMILES: CNC(CC(C)C)C(=O)NC1C(=O)NC(CC(N)=O)C(=O)NC2C(=O)NC3C(=O)NC(C(=O)NC(C(=O)O)c4cc(O)cc(O)c4-c4cc3ccc4O)C(OC3CC(C)(N)C(O)C(C)O3)c3ccc(c(Cl)c3)Oc3cc2cc(c3OC2OC(CO)C(O)C(O)C2OC2CC(C)(NCCc3ccc4ccccc4c3)C(O)C(C)O2)Oc2ccc(cc2Cl)C1O (stereo not drawn) [Compound 179, 2-[2-napthyl]ethyl]
- MIC [1]: 1 µg/mL (≈ 0.573 µM)
- MIC (Entercoccus faecalis 276): ≤ 0.06 µg/mL
- MIC [2]: ≤ 0.06 µg/mL

SMILES: CNC(CC(C)C)C(=O)NC1C(=O)NC(CC(N)=O)C(=O)NC2C(=O)NC3C(=O)NC(C(=O)NC(C(=O)O)c4cc(O)cc(O)c4-c4cc3ccc4O)C(O)c3ccc(c(Cl)c3)Oc3cc2cc(c3OC2OC(CO)C(O)C(O)C2OC2CC(C)(NCc3cccc4ccccc34)C(O)C(C)O2)Oc2ccc(cc2Cl)C1O (stereo not drawn) [Compound 180, 1-napthylmethyl]
- MIC [1]: 0.25 µg/mL (≈ 0.157 µM)
- MIC (Entercoccus faecalis 276): 2 µg/mL (≈ 1.26 µM)
- MIC [2]: 0.25 µg/mL (≈ 0.157 µM)

SMILES: CNC(CC(C)C)C(=O)NC1C(=O)NC(CC(N)=O)C(=O)NC2C(=O)NC3C(=O)NC(C(=O)NC(C(=O)O)c4cc(O)cc(O)c4-c4cc3ccc4O)C(OC3CC(C)(N)C(O)C(C)O3)c3ccc(cc3)Oc3cc2cc(c3OC2OC(CO)C(O)C(O)C2OC2CC(C)(NCc3ccc(-c4ccccc4)cc3)C(O)C(C)O2)Oc2ccc(cc2Cl)C1O (stereo not drawn) [Compound 182, 4-phenylbenzyl]
- MIC [1]: 1 µg/mL (≈ 0.58 µM)
- MIC (Entercoccus faecalis 276): 1 µg/mL (≈ 0.58 µM)
- MIC [2]: 1 µg/mL (≈ 0.58 µM)

SMILES: CNC(CC(C)C)C(=O)NC1C(=O)NC(CC(N)=O)C(=O)NC2C(=O)NC3C(=O)NC(C(=O)NC(C(=O)O)c4cc(O)cc(O)c4-c4cc3ccc4O)C(OC3CC(C)(N)C(O)C(C)O3)c3ccc(cc3)Oc3cc2cc(c3OC2OC(CO)C(O)C(O)C2OC2CC(C)(NCc3ccc(Oc4ccccc4)cc3)C(O)C(C)O2)Oc2ccc(cc2)C1O (stereo not drawn) [Compound 184, 4-phenoxybenzyl]
- MIC [1]: 4 µg/mL (≈ 2.34 µM)
- MIC (Entercoccus faecalis 276): 0.5 µg/mL (≈ 0.293 µM)
- MIC [2]: 1 µg/mL (≈ 0.586 µM)

SMILES: CNC(CC(C)C)C(=O)NC1C(=O)NC(CC(N)=O)C(=O)NC2C(=O)NC3C(=O)NC(C(=O)NC(C(=O)O)c4cc(O)cc(O)c4-c4cc3ccc4O)C(OC3CC(C)(N)C(O)C(C)O3)c3ccc(c(Cl)c3)Oc3cc2cc(c3OC2OC(CO)C(O)C(O)C2OC2CC(C)(NCc3ccc(-c4ccccc4)cc3)C(O)C(C)O2)Oc2ccc(cc2)C1O (stereo not drawn) [Compound 185, 4-phenylbenzyl]
- MIC [1]: ≤ .06 µg/mL
- MIC (Entercoccus faecalis 276): ≤ .06 µg/mL
- MIC [2]: ≤ .06 µg/mL

SMILES: CCCCCCCCCCC#CCNC1(C)CC(OC2C(Oc3c4cc5cc3Oc3ccc(cc3Cl)C(OC3CC(C)(N)C(O)C(C)O3)C3NC(=O)C(NC(=O)C5NC(=O)C(CC(N)=O)NC(=O)C(NC(=O)C(CC(C)C)NC)C(O)c5ccc(c(Cl)c5)O4)c4ccc(O)c(c4)-c4c(O)cc(O)cc4C(C(=O)O)NC3=O)OC(CO)C(O)C2O)OC(C)C1O (stereo not drawn) [Compound 191, 2-tridecynyl]
- MIC [1]: 8 µg/mL (≈ 4.52 µM)
- MIC (Entercoccus faecalis 276): 4 µg/mL (≈ 2.26 µM)
- MIC [2]: 1 µg/mL (≈ 0.565 µM)

SMILES: CNC(CC(C)C)C(=O)NC1C(=O)NC(CC(N)=O)C(=O)NC2C(=O)NC3C(=O)NC(C(=O)NC(C(=O)O)c4cc(O)cc(O)c4-c4cc3ccc4O)C(OC3CC(C)(N)C(O)C(C)O3)c3ccc(c(Cl)c3)Oc3cc2cc(c3OC2OC(CO)C(O)C(O)C2OC2CC(C)(NCc3ccc(NC(=O)c4ccc(F)cc4)cc3)C(O)C(C)O2)Oc2ccc(cc2Cl)C1O (stereo not drawn) [Compound 193, 4-[(4-fluorobenzoyl)amino]benzyl]
- MIC [1]: 1 µg/mL (≈ 0.55 µM)
- MIC (Entercoccus faecalis 276): ≤ 0.06 µg/mL
- MIC [2]: ≤ 0.06 µg/mL

SMILES: CNC(CC(C)C)C(=O)NC1C(=O)NC(CC(N)=O)C(=O)NC2C(=O)NC3C(=O)NC(C(=O)NC(C(=O)O)c4cc(O)cc(O)c4-c4cc3ccc4O)C(OC3CC(C)(N)C(O)C(C)O3)c3ccc(c(Cl)c3)Oc3cc2cc(c3OC2OC(CO)C(O)C(O)C2OC2CC(C)(NCCCCCCCCOc3ccccc3)C(O)C(C)O2)Oc2ccc(cc2Cl)C1O (stereo not drawn) [Compound 195, 8-phenoxyoctyl]
- MIC [1]: 4 µg/mL (≈ 2.23 µM)
- MIC (Entercoccus faecalis 276): 0.25 µg/mL (≈ 0.139 µM)
- MIC [2]: ≤ 0.06 µg/mL

SMILES: CNC(CC(C)C)C(=O)NC1C(=O)NC(CC(N)=O)C(=O)NC2C(=O)NC3C(=O)NC(C(=O)NC(C(=O)O)c4cc(O)cc(O)c4-c4cc3ccc4O)C(OC3CC(C)(N)C(O)C(C)O3)c3ccc(c(Cl)c3)Oc3cc2cc(c3OC2OC(CO)C(O)C(O)C2OC2CC(C)(NCCCCCCCCCCc3ccccc3)C(O)C(C)O2)Oc2ccc(cc2Cl)C1O (stereo not drawn) [Compound 197, 10-phenyldecyl]
- MIC [1]: 4 µg/mL (≈ 2.21 µM)
- MIC (Entercoccus faecalis 276): 1 µg/mL (≈ 0.553 µM)
- MIC [2]: 0.25 µg/mL (≈ 0.138 µM)

SMILES: CNC(CC(C)C)C(=O)NC1C(=O)NC(CC(N)=O)C(=O)NC2C(=O)NC3C(=O)NC(C(=O)NC(C(=O)O)c4cc(O)cc(O)c4-c4cc3ccc4O)C(OC3CC(C)(N)C(O)C(C)O3)c3ccc(c(Cl)c3)Oc3cc2cc(c3OC2OC(CO)C(O)C(O)C2OC2CC(C)(NCCCCCCCCBr)C(O)C(C)O2)Oc2ccc(cc2Cl)C1O (stereo not drawn) [Compound 198, 8-bromooctyl]
- MIC [1]: 1 µg/mL (≈ 0.561 µM)
- MIC (Entercoccus faecalis 276): 0.25 µg/mL (≈ 0.14 µM)
- MIC [2]: ≤ 0.06 µg/mL

SMILES: CC#CCCCCCCCCCCNC1(C)CC(OC2C(Oc3c4cc5cc3Oc3ccc(cc3Cl)C(OC3CC(C)(N)C(O)C(C)O3)C3NC(=O)C(NC(=O)C5NC(=O)C(CC(N)=O)NC(=O)C(NC(=O)C(CC(C)C)NC)C(O)c5ccc(c(Cl)c5)O4)c4ccc(O)c(c4)-c4c(O)cc(O)cc4C(C(=O)O)NC3=O)OC(CO)C(O)C2O)OC(C)C1O (stereo not drawn) [Compound 199, 11-tridecynyl]
- MIC [1]: 4 µg/mL (≈ 2.26 µM)
- MIC (Entercoccus faecalis 276): 1 µg/mL (≈ 0.565 µM)
- MIC [2]: ≤ 0.06 µg/mL

SMILES: CNC(CC(C)C)C(=O)NC1C(=O)NC(CC(N)=O)C(=O)NC2C(=O)NC3C(=O)NC(C(=O)NC(C(=O)O)c4cc(O)cc(O)c4-c4cc3ccc4O)C(OC3CC(C)(N)C(O)C(C)O3)c3ccc(c(Cl)c3)Oc3cc2cc(c3OC2OC(CO)C(O)C(O)C2OC2CC(C)(NCCCCCCCCOc3ccc(OC)cc3)C(O)C(C)O2)Oc2ccc(cc2Cl)C1O (stereo not drawn) [Compound 200, 8-[4-methoxyphenoxy]octyl]
- MIC [1]: 2 µg/mL (≈ 1.09 µM)
- MIC (Entercoccus faecalis 276): 0.5 µg/mL (≈ 0.274 µM)
- MIC [2]: ≤ 0.06 µg/mL

SMILES: CNC(CC(C)C)C(=O)NC1C(=O)NC(CC(N)=O)C(=O)NC2C(=O)NC3C(=O)NC(C(=O)NC(C(=O)O)c4cc(O)cc(O)c4-c4cc3ccc4O)C(OC3CC(C)(N)C(O)C(C)O3)c3ccc(c(Cl)c3)Oc3cc2cc(c3OC2OC(CO)C(O)C(O)C2OC2CC(C)(NCCCCCCCCOc3ccc(-c4ccccc4)cc3)C(O)C(C)O2)Oc2ccc(cc2Cl)C1O (stereo not drawn) [Compound 201, 8-[4-phenylphenoxy]octyl]
- MIC [1]: 8 µg/mL (≈ 4.27 µM)
- MIC (Entercoccus faecalis 276): 4 µg/mL (≈ 2.14 µM)
- MIC [2]: 1 µg/mL (≈ 0.534 µM)

SMILES: CNC(CC(C)C)C(=O)NC1C(=O)NC(CC(N)=O)C(=O)NC2C(=O)NC3C(=O)NC(C(=O)NC(C(=O)O)c4cc(O)cc(O)c4-c4cc3ccc4O)C(OC3CC(C)(N)C(O)C(C)O3)c3ccc(c(Cl)c3)Oc3cc2cc(c3OC2OC(CO)C(O)C(O)C2OC2CC(C)(NCc3cccc(Oc4cccc(C(F)(F)F)c4)c3)C(O)C(C)O2)Oc2ccc(cc2Cl)C1O (stereo not drawn) [Compound 203]
- MIC [1]: 2 µg/mL (≈ 1.09 µM)
- MIC (Entercoccus faecalis 276): 0.5 µg/mL (≈ 0.271 µM)
- MIC [2]: 0.25 µg/mL (≈ 0.136 µM)
